From ChEMBL document CHEMBL1147880, “beta-Alkylthio indolyl carbinols: potent nonsteroidal antiandrogens with oral efficacy in a prostate cancer model” (Bioorg Med Chem Lett, 2007) come the findings set out here.

Calls of active or inactive are those of the source.

Data set [1] has as its system Rattus norvegicus. Description: Reduction of prostate weight in orally dosed immature rat. The format is functional, Prostate gland. Details: Activity: scale not given: the % may be the effect or the level left.
Data set [2] can be described thus: Half life in mature rat. The format is ADME, organism-based. As to conditions: in vivo.
In data set [3] the test system is Rattus norvegicus. Description: Reduction of prostate weight in orally dosed mature rat. The format is functional. The following applies: Prostate gland, po, read-out: ID50 (the source's name).
For data set [4], the system named is Rattus norvegicus. Description: Reduction of prostate weight in orally dosed castrated mature rat. The following applies: Prostate gland. The format is functional, organism-based.
Data set [5] is described as follows: Oral bioavailability in mature rat. The format is ADME, organism-based. As to conditions: in vivo.
For a further data set, the system named is LNCaP. The data set can be described thus: Inhibition of tumor growth in LNCaP cells xenografted mouse at 100 mg/kg, po after 51 days. The format is functional, organism-based. The arrangement: dose 100 mg/kg. The following applies: Homo sapiens.
Data set [6] concerns the target T1, Androgen receptor (Homo sapiens) (UniProt P10275).
T1 sequence (whole entry): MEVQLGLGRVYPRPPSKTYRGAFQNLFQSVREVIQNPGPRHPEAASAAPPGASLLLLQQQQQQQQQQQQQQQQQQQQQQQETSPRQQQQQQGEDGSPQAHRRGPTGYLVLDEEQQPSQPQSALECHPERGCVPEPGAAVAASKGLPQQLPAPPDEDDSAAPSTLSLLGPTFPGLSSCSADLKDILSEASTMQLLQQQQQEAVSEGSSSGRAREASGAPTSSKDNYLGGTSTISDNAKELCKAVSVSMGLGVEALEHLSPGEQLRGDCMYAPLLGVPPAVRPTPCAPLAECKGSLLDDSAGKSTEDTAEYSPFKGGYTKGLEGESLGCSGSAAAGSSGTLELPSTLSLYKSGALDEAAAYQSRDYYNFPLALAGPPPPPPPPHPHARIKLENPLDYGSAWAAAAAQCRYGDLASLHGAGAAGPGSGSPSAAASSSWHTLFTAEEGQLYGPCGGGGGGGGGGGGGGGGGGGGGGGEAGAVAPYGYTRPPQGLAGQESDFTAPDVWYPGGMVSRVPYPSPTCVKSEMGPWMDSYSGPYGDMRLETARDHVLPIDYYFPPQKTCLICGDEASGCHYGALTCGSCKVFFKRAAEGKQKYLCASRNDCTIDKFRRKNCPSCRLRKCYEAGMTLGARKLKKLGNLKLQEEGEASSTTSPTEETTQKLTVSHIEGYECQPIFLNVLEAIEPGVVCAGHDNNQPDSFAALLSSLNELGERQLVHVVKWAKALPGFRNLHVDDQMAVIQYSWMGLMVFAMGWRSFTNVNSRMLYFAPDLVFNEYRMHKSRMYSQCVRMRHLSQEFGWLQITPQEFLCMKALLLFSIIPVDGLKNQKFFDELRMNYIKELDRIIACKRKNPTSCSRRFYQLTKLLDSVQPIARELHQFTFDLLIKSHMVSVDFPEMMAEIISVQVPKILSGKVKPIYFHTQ
The data set can be described thus: Binding affinity to AR expressed in COS cells by whole-cell binding assay. The format is cell-based.

Consider `CCSC[C@](C)(O)c1cc2cc(C#N)c(C(F)(F)F)cc2n1C`, for which the Activity with Rattus norvegicus [1] was 43%.

`CCc1c([C@@](C)(O)CS(=O)(=O)CC)[nH]c2cc(C(F)(F)F)c(C#N)cc12` registered an ID50 with Rattus norvegicus [1] of 1.4 mg/day. The same compound had a half-life in data set [2] of 0.9 h.

For `CCSC[C@@](C)(O)c1cc2cc(C#N)c(C(F)(F)F)cc2[nH]1`, the result in the data set on Rattus norvegicus [1] (Prostate gland) was inactive.

As for `CSCC[C@@](C)(O)c1cc2cc([N+](=O)[O-])c(C(F)(F)F)cc2[nH]1`, the Activity with Rattus norvegicus [1] was 44%.

Consider `CCSC[C@](C)(O)c1cc2cc(C#N)c(C(F)(F)F)cc2[nH]1` [listing 1 of 2 here], for which the Activity in the data set with Rattus norvegicus [1] worked out at 100%.

The compound `CCSC[C@](C)(O)c1cc2ccccc2[nH]1` returned an Activity with Rattus norvegicus [1] of 26%.

Take `CCSC[C@](C)(O)c1cc2cc(F)c(Cl)cc2[nH]1`: in the data set on Rattus norvegicus [1], the Activity was found to be 60%.

For `CSC[C@@](C)(O)c1cc2cc([N+](=O)[O-])c(C(F)(F)F)cc2[nH]1`, the Activity in the data set on Rattus norvegicus [1] was 66%.

Compound `CCSC[C@](O)(CC)c1cc2cc([N+](=O)[O-])c(C(F)(F)F)cc2[nH]1` yielded an Activity in the data set with Rattus norvegicus [1] of 73%.

In turn, `CCSC[C@@](C)(O)c1cc2cc([N+](=O)[O-])c(C(F)(F)F)cc2[nH]1` came in with an Activity with Rattus norvegicus [1] of 75%.

Regarding `CC(C)CSC[C@@](C)(O)c1cc2cc([N+](=O)[O-])c(C(F)(F)F)cc2[nH]1`, the Activity in the data set on Rattus norvegicus [1] was 75%.

Compound `CCSC[C@](C)(O)c1cc2cc(C#N)c(Cl)cc2[nH]1` showed an Activity in the data set on Rattus norvegicus [1] of 83%.

In the data set with Rattus norvegicus [1], `CCS(=O)(=O)C[C@](C)(O)c1cc2cc(C#N)c(C(F)(F)F)cc2[nH]1` returned an Activity of 100% and an ID50 of 0.89 mg/day. Also, the ED50 in the data set on Rattus norvegicus [3] worked out at 22 mg/kg. Besides, the result in the data set with Rattus norvegicus [4] was inactive. The compound further showed a bioavailability in data set [5] of 68%. This compound had a half-life in data set [2] of 52 h. Moreover, the result in the data set on LNCaP was Active. The result in data set [6] was Active.

For the compound `CCSC[C@](C)(O)c1cc2cc(C#N)c(C)cc2[nH]1`, the outcome with Rattus norvegicus [1] (Prostate gland) was inactive.

Regarding `CCSC[C@](C)(O)c1cc2cc(C#N)ncc2[nH]1`, in the data set with Rattus norvegicus [1] (Prostate gland), the outcome was inactive.

For `CC(O)(CS(=O)(=O)c1ccc(F)cc1)C(=O)Nc1ccc(C#N)c(C(F)(F)F)c1` (configuration not stated) [BICALUTAMIDE], in the data set on Rattus norvegicus [1], the Activity was determined as 75% and the ID50 was determined as 0.44 mg/day. Besides, the ED50 in the data set on Rattus norvegicus [3] is greater than 44 mg/kg.

In turn, `CCSC[C@](C)(O)c1cc2cc(C#N)c(C(F)(F)F)cc2n1COC` registered an Activity with Rattus norvegicus [1] of 37%.

In the data set on Rattus norvegicus [1], `CCS(=O)(=O)C[C@](C)(O)c1[nH]c2cc(C(F)(F)F)c(C#N)cc2c1C` had an ID50 of 2.4 mg/day. The ED50 in the data set on Rattus norvegicus [3] was greater than 30 mg/kg. Further, in data set [2], the half-life is 2 h.

`CCSC[C@](C)(O)c1cc2cc([N+](=O)[O-])ccc2[nH]1` had an Activity in the data set with Rattus norvegicus [1] of 34%.

The compound `C[C@@](O)(CSCc1ccccc1)c1cc2cc([N+](=O)[O-])c(C(F)(F)F)cc2[nH]1` registered an Activity in the data set on Rattus norvegicus [1] of 54%.

The compound `CCCCSC[C@@](C)(O)c1cc2cc([N+](=O)[O-])c(C(F)(F)F)cc2[nH]1` registered an Activity with Rattus norvegicus [1] of 40%.

With `CCSC[C@](C)(O)c1cc2cc(C#N)c(C(F)(F)F)cc2[nH]1` [listing 2 of 2 here], in the data set on Rattus norvegicus [1], the Activity was 100% and the ID50 stood at 0.44 mg/day. For the same compound, the ED50 in the data set with Rattus norvegicus [3] was 22 mg/kg.

`CCSC[C@](C)(O)c1cc2cc(C)c(C(F)(F)F)cc2[nH]1`: the Activity in the data set with Rattus norvegicus [1] stood at 22%.

`CCSCC(O)(CSCC)c1cc2cc([N+](=O)[O-])c(C(F)(F)F)cc2[nH]1`: the Activity in the data set with Rattus norvegicus [1] is recorded as 32%.

Compound `CCSC[C@](C)(O)c1cc2cc(F)c(C(F)(F)F)cc2[nH]1` came in with an Activity in the data set with Rattus norvegicus [1] of 58%.

With `CCSC[C@](C)(O)c1cc2cc(C#N)c(C(F)(F)F)cc2n1CC(F)(F)F`, in the data set on Rattus norvegicus [1], the Activity is given as 53%.

Regarding `CCSC[C@](C)(O)c1cc2cc([N+](=O)[O-])c(C(F)(F)F)cc2o1`, the Activity in the data set with Rattus norvegicus [1] came out at 38%.

On to `CCSC[C@](C)(O)c1[nH]c2cc(C(F)(F)F)c(C#N)cc2c1C`, for which the Activity with Rattus norvegicus [1] amounted to 61%. Besides, in the data set on Rattus norvegicus [3], the ED50 is greater than 60 mg/kg.

In turn, `C[C@@](O)(CSCc1cccs1)c1cc2cc([N+](=O)[O-])c(C(F)(F)F)cc2[nH]1` registered an Activity with Rattus norvegicus [1] of 28%.

For the compound `CCSCC(C)(O)Cc1cc2cc([N+](=O)[O-])c(C(F)(F)F)cc2[nH]1` (configuration not stated), the result with Rattus norvegicus [1] (Prostate gland) was inactive.

On to `CCSC[C@](C)(O)c1cc2cc(C#N)c(C(F)(F)F)cc2n1CC`, for which the Activity with Rattus norvegicus [1] was 55%.

`CCSCC(O)c1cc2cc([N+](=O)[O-])c(C(F)(F)F)cc2[nH]1` (configuration not stated) gave an Activity in the data set on Rattus norvegicus [1] of 30%.

As for `O=[N+]([O-])c1cc2cc(C3(O)CCSC3)[nH]c2cc1C(F)(F)F` (configuration not stated), in the data set on Rattus norvegicus [1], the Activity was found to be 49%.

With `CCSC[C@](C)(O)c1cc2cc(Cl)ccc2[nH]1`, the outcome with Rattus norvegicus [1] (Prostate gland) was inactive.

Take `CCSC[C@@](C)(OC)c1cc2cc([N+](=O)[O-])c(C(F)(F)F)cc2[nH]1`: the Activity in the data set with Rattus norvegicus [1] is listed as 76%.

Turning to `CC(C)SC[C@@](C)(O)c1cc2cc([N+](=O)[O-])c(C(F)(F)F)cc2[nH]1`, the Activity in the data set with Rattus norvegicus [1] was found to be 42%.

As for `CCSC[C@](C)(O)c1cc2cc(Cl)c(C(F)(F)F)cc2[nH]1`, in the data set on Rattus norvegicus [1], the Activity was 54%.

On to `CCSC[C@](C)(O)c1cc2cc(Cl)c(Cl)cc2[nH]1`, for which, in the data set on Rattus norvegicus [1] (Prostate gland), the result was inactive.

As for `C[C@@](O)(CSCC(F)(F)F)c1cc2cc([N+](=O)[O-])c(C(F)(F)F)cc2[nH]1`, in the data set on Rattus norvegicus [1], the Activity was 46%.

`C[C@@](O)(CSCc1ccco1)c1cc2cc([N+](=O)[O-])c(C(F)(F)F)cc2[nH]1` registered an Activity in the data set on Rattus norvegicus [1] of 46%.

`CCSC[C@](C)(O)c1cc2cc(N)c(C(F)(F)F)cc2[nH]1`: the outcome with Rattus norvegicus [1] (Prostate gland) was inactive.

On to `CCSC[C@](C)(O)c1cc2cc(C#N)c(OC)cc2[nH]1`, for which the outcome with Rattus norvegicus [1] (Prostate gland) was inactive.

As to `CCSC[C@](C)(O)c1cc2cc(C#N)c(C(F)(F)F)cc2n1CC#N`, the outcome in the data set on Rattus norvegicus [1] (Prostate gland) was inactive.

Consider `CC[S+]([O-])C[C@](C)(O)c1cc2cc(C#N)c(C(F)(F)F)cc2[nH]1` (some centres not stated), for which the Activity in the data set on Rattus norvegicus [1] is 62%.

`CCCSC[C@@](C)(O)c1cc2cc([N+](=O)[O-])c(C(F)(F)F)cc2[nH]1` returned an Activity with Rattus norvegicus [1] of 40%.

Take `CCSC[C@](C)(O)c1cc2cc(C#N)ccc2[nH]1`: the result in the data set with Rattus norvegicus [1] (Prostate gland) was inactive.

For `CCSCC(C)(O)c1cc2cc([N+](=O)[O-])cc(C(F)(F)F)c2[nH]1` (configuration not stated), in the data set with Rattus norvegicus [1], the Activity is reported as 66%.

The half-life is the time needed for the level to fall by half in the phase considered. In general, bioavailability refers to the share of a dose that reaches the circulation, judged against a reference dose that is usually intravenous.
